Active and inactive are the calls of the source.
Assays:
[1] = target: Luciferin 4-monooxygenase (Photinus pyralis, UniProt P08659); assay: firefly luciferase enzyme inhibitors, dose response, biochemical, luminescence (AID 1891)
[2] = Luminescence Cell-Based Dose Confirmation HTS to Identify Inhibitors of Platelet Dense Granule Release. [Related pubchem assays: 1663 (Primary HTS), 1678 (Summary of Project)]; assay type: functional
[3] = target: Cytochrome P450 2C19 (Homo sapiens, UniProt P33261); assay: Cytochrome panel assay with activity outcomes. Panel member name: p450-cyp2c19 Compounds with AC50 equal or less than 10 uM are considered active; assay type: functional; details: read-out: AC50
Cytochrome P450 2C19, sequence (P33261 whole entry): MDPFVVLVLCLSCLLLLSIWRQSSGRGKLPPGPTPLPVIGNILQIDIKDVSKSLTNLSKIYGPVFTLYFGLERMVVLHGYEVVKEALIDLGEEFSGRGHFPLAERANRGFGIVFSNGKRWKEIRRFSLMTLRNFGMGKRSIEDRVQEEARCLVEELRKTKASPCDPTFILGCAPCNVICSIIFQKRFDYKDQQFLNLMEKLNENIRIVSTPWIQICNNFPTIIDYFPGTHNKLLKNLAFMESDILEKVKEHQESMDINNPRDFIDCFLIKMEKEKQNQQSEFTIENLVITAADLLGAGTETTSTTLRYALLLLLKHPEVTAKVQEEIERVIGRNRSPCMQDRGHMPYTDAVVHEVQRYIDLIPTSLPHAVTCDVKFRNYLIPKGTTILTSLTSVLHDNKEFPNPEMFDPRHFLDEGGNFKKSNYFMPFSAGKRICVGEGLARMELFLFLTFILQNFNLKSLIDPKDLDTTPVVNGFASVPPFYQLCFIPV

[4] = target: T1, Replicative DNA helicase DnaB (Mycobacterium tuberculosis, UniProt P9WMR3); assay: DnaB intein splicing inhibitors, dose response, biochemical, cell-free fluorescence (AID 449749); assay type: functional
T1 sequence (P9WMR3 whole entry): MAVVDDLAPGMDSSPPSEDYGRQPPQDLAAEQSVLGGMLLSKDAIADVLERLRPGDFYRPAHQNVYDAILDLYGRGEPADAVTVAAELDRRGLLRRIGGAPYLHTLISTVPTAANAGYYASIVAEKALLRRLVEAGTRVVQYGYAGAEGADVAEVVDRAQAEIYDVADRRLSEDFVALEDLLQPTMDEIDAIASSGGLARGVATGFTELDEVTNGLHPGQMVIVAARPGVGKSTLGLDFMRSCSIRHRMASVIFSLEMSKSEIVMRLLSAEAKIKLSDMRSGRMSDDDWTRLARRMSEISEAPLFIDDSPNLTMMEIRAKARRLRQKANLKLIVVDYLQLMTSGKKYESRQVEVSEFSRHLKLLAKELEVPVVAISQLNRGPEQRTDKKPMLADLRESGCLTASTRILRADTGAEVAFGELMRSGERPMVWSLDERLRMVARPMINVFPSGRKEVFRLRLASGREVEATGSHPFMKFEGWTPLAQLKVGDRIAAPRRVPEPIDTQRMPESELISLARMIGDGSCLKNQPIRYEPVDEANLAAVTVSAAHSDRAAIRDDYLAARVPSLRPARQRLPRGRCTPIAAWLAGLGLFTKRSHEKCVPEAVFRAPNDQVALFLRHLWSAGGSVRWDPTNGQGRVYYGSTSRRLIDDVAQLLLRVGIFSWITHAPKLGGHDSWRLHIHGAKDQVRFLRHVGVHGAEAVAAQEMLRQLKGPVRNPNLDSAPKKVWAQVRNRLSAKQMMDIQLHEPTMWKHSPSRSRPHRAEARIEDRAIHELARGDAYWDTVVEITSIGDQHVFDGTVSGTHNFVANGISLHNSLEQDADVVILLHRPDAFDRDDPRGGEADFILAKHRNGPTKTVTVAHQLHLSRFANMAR

[5] = target: T2, Protein RecA (Mycobacterium tuberculosis, UniProt P9WHJ3); assay: Fluorescence Cell-Free Homogeneous Dose Retest to Identify Inhibitors of RecA-Intein Splicing Activity. [Related pubchem assays (depositor defined):AID2097, AID2223, AID489010, AID492950]; assay type: functional
T2 sequence (P9WHJ3 whole entry): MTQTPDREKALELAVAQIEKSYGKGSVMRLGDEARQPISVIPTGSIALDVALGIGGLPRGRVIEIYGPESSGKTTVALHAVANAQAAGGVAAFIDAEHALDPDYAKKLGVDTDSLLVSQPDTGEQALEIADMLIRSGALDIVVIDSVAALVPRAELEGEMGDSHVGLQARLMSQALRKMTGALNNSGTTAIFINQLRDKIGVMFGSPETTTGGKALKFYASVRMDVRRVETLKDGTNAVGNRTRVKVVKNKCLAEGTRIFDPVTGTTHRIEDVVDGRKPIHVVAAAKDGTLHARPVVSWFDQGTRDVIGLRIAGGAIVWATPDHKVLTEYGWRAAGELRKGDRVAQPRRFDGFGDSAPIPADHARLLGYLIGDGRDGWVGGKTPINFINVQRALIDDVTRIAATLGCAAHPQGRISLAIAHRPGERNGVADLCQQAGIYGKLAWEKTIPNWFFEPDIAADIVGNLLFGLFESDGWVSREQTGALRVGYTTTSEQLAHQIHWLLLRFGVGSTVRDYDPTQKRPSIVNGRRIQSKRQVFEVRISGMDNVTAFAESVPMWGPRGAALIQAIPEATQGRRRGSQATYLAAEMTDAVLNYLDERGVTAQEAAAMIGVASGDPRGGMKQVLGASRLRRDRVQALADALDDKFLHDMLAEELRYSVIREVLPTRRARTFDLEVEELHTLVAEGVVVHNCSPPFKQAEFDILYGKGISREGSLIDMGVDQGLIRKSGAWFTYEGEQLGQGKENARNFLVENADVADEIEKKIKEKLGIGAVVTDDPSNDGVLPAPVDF

[6] = cytotoxicity toward NIH3T3 fibroblasts, dose response, counter-screen, cell-based, ATP luminescence, mouse fibroblasts (AID 2010); assay type: functional;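 also: cells exposed to compound for about 90 hours before reading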
[7] = inhibitors of intracellular T. cruzi replication, confirmation, NIH3T3 host cells, beta-gal luminescence (AID 2044); assay type: functional, cell-based;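 also: intracellular parasites grown in NIH/3T3 mouse fibroblasts as host cells; luminescent beta-galactosidase reporter signal from transgenic T. cruzi replicating inside host cells; inhibitors lower the luminescence signal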
[8] = Luminescence Cell-Based Dose Retest to Confirm Inhibitors of Cancer Stem Cells. [Related pubchem assays (depositor defined):AID2717, AID2721]; assay type: functional; details: Homo sapiens
[9] = target: Cytochrome P450 2C9 (Homo sapiens, UniProt P11712)
Cytochrome P450 2C9, sequence (P11712 whole entry): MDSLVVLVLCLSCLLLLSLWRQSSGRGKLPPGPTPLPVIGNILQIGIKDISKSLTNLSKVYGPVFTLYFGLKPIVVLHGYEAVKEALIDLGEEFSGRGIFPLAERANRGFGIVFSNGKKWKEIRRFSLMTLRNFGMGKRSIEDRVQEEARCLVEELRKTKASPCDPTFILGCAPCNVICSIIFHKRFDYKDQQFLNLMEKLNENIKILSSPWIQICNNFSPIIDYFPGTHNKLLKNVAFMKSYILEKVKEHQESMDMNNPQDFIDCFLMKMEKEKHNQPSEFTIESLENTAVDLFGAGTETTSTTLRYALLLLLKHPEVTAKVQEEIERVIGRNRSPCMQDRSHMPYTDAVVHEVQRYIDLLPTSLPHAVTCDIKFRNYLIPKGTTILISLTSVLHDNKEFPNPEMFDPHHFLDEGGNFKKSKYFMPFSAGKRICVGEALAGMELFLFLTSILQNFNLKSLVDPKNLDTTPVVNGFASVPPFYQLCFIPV

[10] = target: Cytochrome P450 3A4 (Homo sapiens, UniProt P08684);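 also: CYP3A4 tested as one member of a cytochrome P450 panel screen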
Cytochrome P450 3A4, sequence (P08684 whole entry): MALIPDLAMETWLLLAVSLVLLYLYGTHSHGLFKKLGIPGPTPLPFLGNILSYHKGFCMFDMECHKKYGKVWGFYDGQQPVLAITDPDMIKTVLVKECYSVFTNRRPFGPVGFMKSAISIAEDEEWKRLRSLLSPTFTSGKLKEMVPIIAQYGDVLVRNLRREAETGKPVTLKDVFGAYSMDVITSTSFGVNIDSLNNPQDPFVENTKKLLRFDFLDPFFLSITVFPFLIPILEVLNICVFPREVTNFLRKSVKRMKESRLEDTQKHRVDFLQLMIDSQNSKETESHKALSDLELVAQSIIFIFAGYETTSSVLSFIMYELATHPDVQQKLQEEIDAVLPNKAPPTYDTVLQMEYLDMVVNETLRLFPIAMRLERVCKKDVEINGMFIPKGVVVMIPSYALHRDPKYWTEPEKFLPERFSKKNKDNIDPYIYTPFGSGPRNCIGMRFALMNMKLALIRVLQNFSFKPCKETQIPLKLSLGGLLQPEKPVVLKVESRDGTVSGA

[11] = HEp-2 cell cytotoxicity, dose response, cytotoxicity control for RSV inhibitor project, HTS (AID 2410); assay type: functional; details: human respiratory syncytial virus

Luciferin 4-monooxygenase, sequence (P08659 whole entry): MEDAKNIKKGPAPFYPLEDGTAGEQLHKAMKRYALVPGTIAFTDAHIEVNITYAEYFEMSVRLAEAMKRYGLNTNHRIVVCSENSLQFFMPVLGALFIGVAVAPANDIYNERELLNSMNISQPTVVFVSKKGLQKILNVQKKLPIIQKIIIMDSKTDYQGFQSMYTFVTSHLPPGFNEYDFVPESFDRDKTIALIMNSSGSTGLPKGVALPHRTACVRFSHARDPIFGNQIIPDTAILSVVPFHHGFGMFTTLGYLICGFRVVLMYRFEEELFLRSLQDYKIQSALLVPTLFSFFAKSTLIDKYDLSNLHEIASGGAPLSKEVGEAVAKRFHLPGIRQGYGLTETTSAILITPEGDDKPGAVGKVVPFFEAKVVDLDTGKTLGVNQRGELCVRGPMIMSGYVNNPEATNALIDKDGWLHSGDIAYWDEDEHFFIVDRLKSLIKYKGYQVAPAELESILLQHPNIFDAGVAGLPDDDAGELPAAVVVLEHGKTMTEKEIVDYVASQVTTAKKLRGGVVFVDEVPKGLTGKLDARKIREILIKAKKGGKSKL

**Q.** Which EC50 [1] does the source give for Nc1cc(-c2ccccc2)nn1Cc1ccc(Cl)cc1 here?
**A.** Its EC50 is > 112 µM (not active).

**Q.** What about the EC50 [2] of the same compound?
**A.** Its EC50 is > 112 µM (not active).

**Q.** With CCOC(=O)c1cn(-c2nc(-c3ccc(Cl)cc3)cs2)c2c(F)c(N3CC(C)OC(C)C3)c(F)cc2c1=O (stereo not given) as the compound, how does the AC50 [3] read?
**A.** Its AC50 is 17.8 µM (inconclusive).

**Q.** What does the source list for O=C(Oc1ccc(N(C(=O)c2ccncc2)S(=O)(=O)c2ccc(Cl)cc2)cc1)c1ccncc1?
**A.** AC50 [4]: 9.26 µM (active); EC50 [5]: 16.4 µM (active)

**Q.** With COCCSc1ccccc1C(=O)Nc1ccc2c(c1)OCO2 as the compound, how does the EC50 [1] read?
**A.** The EC50 was > 112 µM (not active).

**Q.** And the EC50 [2]?
**A.** Its EC50 is > 112 µM (not active).

**Q.** Which EC50 [1] does the source give for COCCN(C(=O)COC(=O)CCc1nc2ccccc2s1)c1c(N)n(Cc2ccccc2)c(=O)[nH]c1=O here?
**A.** Its EC50 is > 112 µM (not active).

**Q.** What about the EC50 [2] of the same compound?
**A.** The EC50 was > 112 µM (not active).

**Q.** With COc1nc(C(=N)NO)nc(N2CCCCC2)n1 as the compound, how does the AC50 [3] read?
**A.** The AC50 was 39.8 µM (inconclusive).

**Q.** With CC(C)C(=O)Nc1ccc(NC(=S)NC(=O)c2ccccc2F)cc1 as the compound, how does the EC50 [1] read?
**A.** Its EC50 is > 112 µM (not active).

**Q.** And the EC50 [2]?
**A.** Its EC50 is > 112 µM (not active).

**Q.** Which EC50 [1] does the source give for COC(=O)c1ccccc1Oc1cc(C(F)(F)F)nc(-c2ccccn2)n1 here?
**A.** Its EC50 is > 112 µM (not active).

**Q.** And the EC50 [2]?
**A.** Its EC50 is > 112 µM (not active).

**Q.** For Cc1cc(C)n(C(=O)c2cccc(S(=O)(=O)N3CCCCC3)c2)n1, which EC50 [1] is on record?
**A.** Its EC50 is > 112 µM (not active).

**Q.** And the EC50 [2]?
**A.** Its EC50 is > 112 µM (not active).

**Q.** For CCOC(=O)c1c(NC(=O)CSc2nc3cc(C)ccc3[nH]2)sc2c1CC(C)(C)NC2(C)C, which EC50 [6] is on record?
**A.** Its EC50 is 18.6 µM (active).

**Q.** What about the EC50 [7] of the same compound?
**A.** Its EC50 is 0.855 µM (active).

**Q.** And the AC50 [8]?
**A.** Its AC50 is 7.46 µM (active).

**Q.** With O=c1nc(-c2ccccc2)n(-c2ccccc2)c2ncccc12 as the compound, how does the AC50 [3] read?
**A.** The AC50 was 22.4 µM (inconclusive).

**Q.** Which AC50 [3] does the source give for CCn1c(S)nnc1-c1ccoc1C here?
**A.** Its AC50 is 28.2 µM (inconclusive).

**Q.** And the AC50 [9]?
**A.** Its AC50 is 31.6 µM (inconclusive).

**Q.** Which results are given for Cc1nc2cnc(Oc3ccccc3)nc2n(-c2ccccc2)c1=O?
**A.** AC50 [9]: 25.1 µM (inconclusive); AC50 [10]: 25.1 µM (inconclusive)

**Q.** For CCOC(=O)CN1C(=O)C(O)=C(C(C)=O)C1c1ccc(F)cc1 (stereo not given), which EC50 [1] is on record?
**A.** The EC50 was > 112 µM (not active).

**Q.** What about the EC50 [2] of the same compound?
**A.** Its EC50 is > 112 µM (not active).

**Q.** Which AC50 [9] does the source give for COC(=O)[C@@]1(Cc2ccc(OC)cc2)[C@@H]2C(=CC(=O)[C@H]2CC(=O)C(=O)N(C)C)CN1C(=O)c1ccccc1 here?
**A.** The AC50 was 25.1 µM (inconclusive).

**Q.** And the AC50 [10]?
**A.** The AC50 was 2.51 µM (inconclusive).

**Q.** With COc1ccc(-c2[nH]nc3c2C(c2ccncc2)C(C#N)=C(N)O3)cc1 (stereo not given) as the compound, how does the AC50 [4] read?
**A.** Its AC50 is 8.02 µM (active).

**Q.** What about the EC50 [5] of the same compound?
**A.** The EC50 was 2.26 µM (active).

**Q.** With Cc1ccccc1-c1nc(N(C)Cc2ccco2)c2ccccc2n1 as the compound, how does the AC50 [10] read?
**A.** Its AC50 is 25.1 µM (inconclusive).

**Q.** What does the source list for FC(F)(F)c1nnc(-c2ccccc2)nc1Oc1ccc(Cl)cc1Cl?
**A.** CC50 [11]: 31.4 µM (active); AC50 [4]: 1.44 µM (active); EC50 [5]: 0.481 µM (active)

**Q.** What does the source list for Sc1nnc(-c2ccncc2)n1CC1CCCO1 (stereo not given)?
**A.** AC50 [3]: 31.6 µM (inconclusive); AC50 [9]: 28.2 µM (inconclusive); AC50 [10]: 22.4 µM (inconclusive)

**Q.** Which results are given for Cc1ccc(C2CCN(C(=O)Nc3ccccc3)C2)cc1 (stereo not given)?
**A.** EC50 [1]: > 112 µM (not active); EC50 [2]: > 112 µM (not active)

**Q.** For COC(=O)c1ccc(/C=C/c2c(-c3ccc(OC)cc3)oc3ccc(N4CCOCC4)cc23)cc1, which AC50 [8] is on record?
**A.** Its AC50 is 2 µM (active).

Source: ChEMBL document CHEMBL1201862, “PubChem BioAssay data set” (2004)
